Key:
Format in all cases: in vivo
[1] = test system: pigweed (Amaranthus retroflexus); assay: Test B pre/postemergence; details: for Pigweed plant response rating: Postemergence; for Plant response rating, Pigweed: Preemergence
Method in brief: (§1)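 Formulation: non-phytotoxic solvent blend with surfactant. Timing: preemergence on seeds, postemergence at 1- to 4-leaf (2–18 cm). Assessment: visual, 0–100 against controls, after 13–15 days' greenhouse growth.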

corn (Zea mays) = assay: Test B pre/postemergence; details: for Corn plant response rating: Postemergence; for Plant response rating, Corn: Preemergence
Method in brief: as §1

[2] = test system: giant foxtail (Setaria faberii); assay: Test B pre/postemergence; details: for Foxtail, Giant plant response rating: Postemergence; for Plant response rating, Foxtail, Giant: Preemergence
Method in brief: as §1

[3] = test system: crabgrass (Digitaria sanguinalis); assay: Test B pre/postemergence; details: for Crabgrass plant response rating: Postemergence; for Plant response rating, Crabgrass: Preemergence
Method in brief: as §1

[4] = test system: barnyardgrass (Echinochloa crus-galli); assay: Test B pre/postemergence; details: for Barnyardgrass plant response rating: Postemergence; for Plant response rating, Barnyardgrass: Preemergence
Method in brief: as §1

[5] = test system: Surinam grass (Brachiaria decumbens); assay: Test B pre/postemergence; details: for Surinam Grass plant response rating: Postemergence; for Plant response rating, Surinam Grass: Preemergence
Method in brief: as §1

[6] = test system: wheat (Triticum aestivum); assay: Test B pre/postemergence; details: for Wheat plant response rating: Postemergence; for Plant response rating, Wheat: Preemergence
Method in brief: as §1

[7] = test system: velvetleaf (Abutilon theophrasti); assay: Test B pre/postemergence; details: for Velvetleaf plant response rating: Postemergence; for Plant response rating, Velvetleaf: Preemergence
Method in brief: as §1

[8] = test system: cocklebur (Xanthium strumarium); assay: Test B pre/postemergence; details: for Cocklebur plant response rating: Postemergence; for Plant response rating, Cocklebur: Preemergence
Method in brief: as §1

[9] = test system: lambsquarters (Chenopodium album); assay: Test B pre/postemergence; details: for Lambsquarters plant response rating: Postemergence; for Plant response rating, Lambsquarters: Preemergence
Method in brief: as §1

[10] = test system: morningglory (Ipomoea coccinea); assay: Test B pre/postemergence; details: for Morningglory plant response rating: Postemergence; for Plant response rating, Morningglory: Preemergence
Method in brief: as §1

[11] = test system: barnyardgrass (Echinochloa crus-galli); assay: Test B flooded paddy test; details: Flood, scale 0 to 100
Method in brief: (§2)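 Plants were grown to the 2-leaf stage before treatment, then kept in a greenhouse for 13 to 15 days. Injury was rated visually against untreated controls on a 0 to 100 scale, where 0 is no effect and 100 is complete control.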

[12] = test system: duck salad (Heteranthera limosa); assay: Test B flooded paddy test; details: Flood, scale 0 to 100
Method in brief: as §2

[13] = test system: umbrella sedge (Cyperus difformis); assay: Test B flooded paddy test; details: Flood, scale 0 to 100
Method in brief: as §2

rice (Oryza sativa) = assay: Test B flooded paddy test; details: Flood, scale 0 to 100
Method in brief: as §2

[14] = test system: blackgrass (Alopecurus myosuroides); assay: Test B postemergence; details: scale 0 to 100 (0 no effect, 100 complete control)
Method in brief: as §1

wild oat (Avena fatua) = assay: Test B postemergence; details: scale 0 to 100 (0 no effect, 100 complete control)
Method in brief: as §1

[15] = 62 g ai/ha, scale 0 to 100 (0 no effect, 100 complete control)
[16] = 125 g ai/ha, scale 0 to 100 (0 no effect, 100 complete control)
[17] = 62 g ai/ha, scale 0 to 100, 0 no effect, 100 complete control

CCCCOC(=O)c1nc(C2CC2)nc(N)c1Cl [Compound 76]
100: Pigweed plant response rating [1, 16] | Plant response rating, Pigweed [1, 17] | Plant response rating, Pigweed [1, 16] | Plant response rating, Cocklebur [8, 16] | Lambsquarters plant response rating [9, 15] | Lambsquarters plant response rating [9, 16] | Plant response rating, Lambsquarters [9, 16] | Morningglory plant response rating [10, 15] | Morningglory plant response rating [10, 16] | Plant response rating, Morningglory [10, 17] | Plant response rating, Morningglory [10, 16]
0: Plant response rating, Barnyardgrass ([11]; 125 g ai/ha) | Plant response rating, Ducksalad ([12]; 125 g ai/ha) | Plant response rating, Rice (rice (Oryza sativa); 125 g ai/ha)
40: Plant response rating, Foxtail, Giant [2, 17] | Plant response rating, Barnyardgrass [4, 17]
30: Plant response rating, Wheat [6, 17] | Plant response rating, Sedge, Umbrella ([13]; 125 g ai/ha)
90: Pigweed plant response rating [1, 15] | Crabgrass plant response rating [3, 16] | Plant response rating, Crabgrass [3, 16] | Barnyardgrass plant response rating [4, 15] | Barnyardgrass plant response rating [4, 16] | Plant response rating, Barnyardgrass [4, 16] | Plant response rating, Surinam Grass [5, 16] | Velvetleaf plant response rating [7, 15] | Velvetleaf plant response rating [7, 16] | Plant response rating, Velvetleaf [7, 16] | Cocklebur plant response rating [8, 16] | Plant response rating, Lambsquarters [9, 17]
60: Foxtail, Giant plant response rating [2, 15] | Wheat plant response rating [6, 15] | Cocklebur plant response rating [8, 15] | Blackgrass plant response rating ([14]; 125 g ai/ha) | Oat, Wild plant response rating (wild oat (Avena fatua); 125 g ai/ha)
70: Corn plant response rating (corn (Zea mays); [16]) | Plant response rating, Corn (corn (Zea mays); [17]) | Crabgrass plant response rating [3, 15] | Surinam Grass plant response rating [5, 15] | Plant response rating, Surinam Grass [5, 17] | Wheat plant response rating [6, 16] | Plant response rating, Wheat [6, 16] | Plant response rating, Barnyardgrass ([11]; 500 g ai/ha) | Plant response rating, Ducksalad ([12]; 500 g ai/ha) | Plant response rating, Sedge, Umbrella ([13]; 500 g ai/ha)
50: Corn plant response rating (corn (Zea mays); [15]) | Plant response rating, Rice (rice (Oryza sativa); 500 g ai/ha) | Blackgrass plant response rating ([14]; 62 g ai/ha) | Oat, Wild plant response rating (wild oat (Avena fatua); 62 g ai/ha)
80: Plant response rating, Corn (corn (Zea mays); [16]) | Foxtail, Giant plant response rating [2, 16] | Plant response rating, Foxtail, Giant [2, 16] | Plant response rating, Crabgrass [3, 17] | Surinam Grass plant response rating [5, 16] | Plant response rating, Velvetleaf [7, 17] | Plant response rating, Cocklebur [8, 17]
